Test results: patent US8796299B2, “NK1 antagonists” (OPKO Health, Inc., priority 2001, dated 2014)

biological target: NK1 receptor (Homo sapiens, UniProt P25103); assay: NK1 receptor binding: inhibition of Substance P binding, Ki from the 50% inhibition concentration; conditions: average Ki for the NK1 receptor
Description: Compounds having the formula (I) can be effective antagonists of the NK1 receptor, and of an effect of its endogenous agonist, Substance P, at the NK1 receptor site, and therefore, can be useful in treating conditions caused or aggravated by the activity of said receptor. The in vitro and in vivo NK1, NK2 and NK3 activities of the compounds having the formula (I) can be determined by various procedures known in the art, such as a test for their ability to inhibit the activity of the NK1 agonist Substance P. The percent inhibition of neurokinin agonist activity is the difference between the percent of maximum specific binding (“MSB”) and 100%. The percent of MSB is defined by the following equation, wherein “dpm” represents “disintegrations per minute”:
[formula] The concentration at which the compound produces 50% inhibition of binding is then used to determine an inhibition constant (“Ki”) using the Chang-Prusoff equation.
The activities (potencies) for the compounds of the invention are determined by measuring their Ki values. […] Even more preferred are compounds having average Ki values of from 0.01 nM to about 10 nM for the NK1 receptor. The most preferred compounds have NK1 average Ki values of from 0.01 nM to about 3 nM.

Sequence of NK1 receptor (P25103 whole entry, species assumed): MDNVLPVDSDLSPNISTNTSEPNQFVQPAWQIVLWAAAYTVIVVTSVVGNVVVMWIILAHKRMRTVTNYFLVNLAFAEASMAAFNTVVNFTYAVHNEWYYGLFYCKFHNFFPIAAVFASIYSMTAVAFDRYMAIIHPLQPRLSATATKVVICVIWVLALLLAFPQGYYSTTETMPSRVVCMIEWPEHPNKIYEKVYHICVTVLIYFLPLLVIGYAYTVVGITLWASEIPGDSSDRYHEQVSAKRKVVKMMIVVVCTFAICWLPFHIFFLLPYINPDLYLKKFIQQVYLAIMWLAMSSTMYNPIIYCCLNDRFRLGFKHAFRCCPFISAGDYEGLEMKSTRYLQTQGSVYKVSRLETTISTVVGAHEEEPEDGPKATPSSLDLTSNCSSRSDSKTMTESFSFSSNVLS

| Ki | SMILES |
| --- | --- |
| 0.77 nM | C[C@@H](OC[C@@]1(c2ccccc2)CC[C@]2(CN1)NC(=O)NC2=O)c1cc(C(F)(F)F)cc(C(F)(F)F)c1 [Example 43b] |
| 0.66 nM | C[C@@H](OC[C@@]1(c2ccccc2)CC[C@]2(CCC(=O)N2)CN1)c1cc(C(F)(F)F)cc(C(F)(F)F)c1 [Example 72a] |
| 0.2 nM | C[C@@H](OC[C@@]1(c2ccccc2)CC[C@@]2(CN1)COC(=O)N2)c1cc(C(F)(F)F)cc(C(F)(F)F)c1 [Example 73b] |
| 0.1 nM | C[C@@H](OC[C@@]1(c2ccccc2)CC[C@H](n2cn[nH]c2=O)CN1)c1cc(C(F)(F)F)cc(C(F)(F)F)c1 [Example 109] |
| 0.41 nM | C[C@@H](OC[C@@]1(c2ccccc2)CC[C@]2(CCCC(=O)N2)CN1)c1cc(C(F)(F)F)cc(C(F)(F)F)c1 [Example 110a] |
| 0.38 nM | C[C@@H](OC[C@@]1(c2ccccc2)CC[C@]2(CCOC(=O)N2)CN1)c1cc(C(F)(F)F)cc(C(F)(F)F)c1 [Example 111a] |
